Patent US20200131144A1, “AMINE OR (THIO)AMIDE CONTAINING LXR MODULATORS” (Phenex-FXR GmbH, priority 2017, published 2020)
Where “and” joins values, the source holds several entries; their conditions need not be identical. Identical values can stand only once.

Tests used:
LXRβ full length (FL) = biological target: T1, LXRβ full length (FL) (Homo sapiens, UniProt P55055, INS174Q); experiment: LXR Gal4 reporter transient transfection assay, mammalian two-hybrid, FL-M2H Gal4β; assay type: cell-based; details: HEK293 cells; inverse agonist unless *
T1 construct: the full length (FL) proteins of LXRα (amino acids 1-447); NP005684; NP009052; expressed in transfected cells; host or cells: HEK293
T1 sequence (P55055 with tags, fused parts or gaps INS174Q): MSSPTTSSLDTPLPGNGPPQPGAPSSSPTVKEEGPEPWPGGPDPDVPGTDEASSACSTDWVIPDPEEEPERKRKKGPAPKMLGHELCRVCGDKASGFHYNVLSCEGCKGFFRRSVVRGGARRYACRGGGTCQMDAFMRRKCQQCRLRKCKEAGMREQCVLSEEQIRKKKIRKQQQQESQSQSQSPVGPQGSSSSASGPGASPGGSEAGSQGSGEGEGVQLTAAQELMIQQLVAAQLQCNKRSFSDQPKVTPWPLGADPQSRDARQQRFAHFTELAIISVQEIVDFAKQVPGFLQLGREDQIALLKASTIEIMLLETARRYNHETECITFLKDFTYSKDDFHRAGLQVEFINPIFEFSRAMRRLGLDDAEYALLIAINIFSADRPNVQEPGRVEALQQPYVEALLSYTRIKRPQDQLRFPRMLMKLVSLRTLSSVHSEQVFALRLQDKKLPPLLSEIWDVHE
Experimental: (§1) The tested compounds were usually dissolved, tested and stored as 20 mM stock solutions in DMSO. Since sulfonyl acetic acid derivatives tend to decarboxylate under these conditions, these stock solutions were prepared, tested and stored as 20 mM DMSO stock solutions containing 100 mM trifluoroacetic acid (5 equivalents). Sulfonyl acetic acid derivatives are shelf stable as solid at rt for long time as reported by Griesbrecht et al. (Synlett 2010:374) or Faucher et al. (J. Med. Chem. 2004; 47:18).
(§2) LXR Gal4 Reporter Transient Transfection Assays
(§3) LXRα and LXRβ activity status was determined via detection of interaction with coactivator and corepressor proteins in mammalian two-hybrid experiments (M2H). For this, via transient transfection the full length (FL) proteins of LXRα (amino acids 1-447; NP005684; SEQ ID NO:1) or LXRβ-(amino acids 1-461; NP009052; SEQ ID NO:2) or the ligand-binding domains (LBD) of LXRα (amino acids 155-447 SEQ ID NO:3) or LXR (amino acids 156-461; SEQ ID NO:4) were expressed from pCMV-AD (Stratagene) as fusions to the transcriptional activation domain of NFkB. As cofactors, domains of either the steroid receptor coactivator 1 (SRC1; amino acids 552-887; SEQ ID NO:5) or of the corepressor NCoR (amino acids 1906-2312; NP006302; SEQ ID NO:6) were expressed as fusions to the DNA binding domain of the yeast transcription factor GAL4 (from pCMV-BD; Stratagene). Interaction was monitored via activation of a coexpressed Firefly Luciferase Reporter gene under control of a promoter containing repetitive GAL4 response elements (vector pFRLuc; Stratagene). Transfection efficiency was controlled via cotransfection of constitutively active pRL-CMV Renilla reniformis luciferase reporter (Promega). HEK293 cells were grown in minimum essential medium (MEM) with 2 mM L-glutamine and Earle's balanced salt solution supplemented with 8.3% fetal bovine serum, 0.1 mM non-essential amino acids, 1 mM sodium pyruvate, at 37° C. in 5% CO2. 3.5×10^4 cells/well were plated in 96-well cell culture plates in growth medium supplemented with 8.3% fetal bovine serum for 16-20 h to—90% confluency. For transfection, medium was taken off and LXR and cofactor expressing plasmids as well as the reporter plasmids are added in 30 μL OPTIMEM/well including polyethylene-imine (PEI) as vehicle. Typical amounts of plasmids transfected/well: pCMV-AD-LXR (5 ng), pCMV-BD-cofactor (5 ng), pFR-Luc (100 ng), pRL-CMV (0.5 ng). Compound stocks were prepared in DMSO, prediluted in MEM to a total volume of 120 μL, and added 4 h after addition of the transfection mixture (final vehicle concentration not exceeding 0.2%). Cells were incubated for additional 16 h, lysed for 10 min in 1×Passive Lysis Buffer (Promega) and Firefly and Renilla luciferase activities were measured sequentially in the same cell extract using buffers containing D-luciferine and coelenterazine, respectively. Measurements of luminescence were done in a BMG-luminometer.

LXRα full length (FL) = biological target: T2, LXRα full length (FL) (Homo sapiens, UniProt Q13133); experiment: LXR Gal4 reporter transient transfection assay, mammalian two-hybrid, FL-M2H Gal4α; assay type: cell-based; details: HEK293 cells; inverse agonist unless *
T2 construct: the full length (FL) proteins of LXRα (amino acids 1-447); NP005684; expressed in transfected cells; host or cells: HEK293
T2 sequence (Q13133 1-447): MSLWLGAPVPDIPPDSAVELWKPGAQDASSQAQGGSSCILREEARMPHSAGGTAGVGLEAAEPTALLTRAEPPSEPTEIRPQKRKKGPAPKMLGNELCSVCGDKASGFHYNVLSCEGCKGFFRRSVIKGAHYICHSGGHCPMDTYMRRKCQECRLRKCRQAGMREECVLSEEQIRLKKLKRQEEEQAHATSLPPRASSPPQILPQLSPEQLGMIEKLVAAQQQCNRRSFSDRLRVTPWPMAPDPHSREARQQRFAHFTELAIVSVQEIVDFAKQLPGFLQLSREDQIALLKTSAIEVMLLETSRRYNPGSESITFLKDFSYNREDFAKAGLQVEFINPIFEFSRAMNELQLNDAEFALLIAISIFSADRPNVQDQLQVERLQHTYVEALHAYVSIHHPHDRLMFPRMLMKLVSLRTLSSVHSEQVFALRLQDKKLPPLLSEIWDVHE
Experimental: as §1, §2, §3

[1] = biological target: T3, GST-LXRβ ligand-binding domain (Homo sapiens, UniProt P55055, INS174Q); experiment: TR-FRETβ activity assay (NCoA3 coactivator peptide recruitment); assay type: biochemical; details: 1 μM 24(S)-25-epoxycholesterol as prestimulating agonist; inverse agonist unless *
T3 construct: amino acids 156-461; NP009052; made in house; host or cells: E. coli
T3 sequence (P55055 with tags, fused parts or gaps INS174Q limits assumed): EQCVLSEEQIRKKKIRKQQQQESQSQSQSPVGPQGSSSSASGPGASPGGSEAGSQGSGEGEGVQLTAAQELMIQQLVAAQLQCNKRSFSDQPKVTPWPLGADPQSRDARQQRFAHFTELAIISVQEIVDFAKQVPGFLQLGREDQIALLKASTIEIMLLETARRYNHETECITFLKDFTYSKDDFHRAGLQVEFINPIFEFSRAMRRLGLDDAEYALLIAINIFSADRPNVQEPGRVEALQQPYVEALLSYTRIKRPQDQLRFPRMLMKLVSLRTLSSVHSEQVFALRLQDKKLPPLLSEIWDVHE
Experimental: The tested compounds were usually dissolved, tested and stored as 20 mM stock solutions in DMSO. […] Sulfonyl acetic acid derivatives are shelf stable as solid at rt for long time as reported by Griesbrecht et al. (Synlett 2010:374) or Faucher et al. (J. Med. Chem. 2004; 47:18). TR-FRETβ Activity Assay Recombinant GST-LXRβ ligand-binding domain (LBD; amino acids 156-461; NP009052; SEQ ID NO:4) was expressed in E. coli and purified via gluthatione-sepharose affinity chromatography. N-terminally biotinylated NCoA3 coactivator peptide (SEQ ID NO:7) was chemically synthesized (Eurogentec). […] Finally, a detection mix was added containing anti GST-Tb cryptate (CisBio; 610SAXLB) and Streptavidin-XL665 (CisBio; 610SAXLB) as fluorescent donor and acceptor, respectively, as well as the coactivator peptide and LXRβ-LBD protein (SEQ ID NO:4). The reaction was mixed thoroughly, equilibrated for 1 h at 4° C. and vicinity of LXRβ and coactivator peptide was detected by measurement of fluorescence in a VictorX4 multiplate reader (PerkinElmer Life Science) using 340 nm as excitation and 615 and 665 nm as emission wavelengths. Assays were performed in triplicates. Final Assay Concentrations of Components: 240 mM KCl, 1 μg/μL BSA, 0.002% Triton-X-100, 125 pg/μL anti GST-Tb cryptate, 2.5 ng/μL Streptavidin-XL665, coactivator peptide (400 nM), LXRP protein ([…], i.e. 76 nM).

Row | SMILES | EC50 (LXRβ full length (FL)) | EC50 (LXRα full length (FL)) | EC50 [1] | FRETβ [1]
1 | Cc1cc(C)c(CN(Cc2ccc(-c3cccc(S(=O)(=O)CC(=O)N(C)O)c3)cc2)Cc2ccc(C(F)(F)F)o2)c(C)c1 [5/2] | < 100 nM | 100 to 1000 nM | < 100 nM | –
2 | Cc1ccc2ccccc2c1C(=O)N(Cc1ccc(-c2cccc(S(=O)(=O)CC(=O)NS(C)(=O)=O)c2)cc1)Cc1ccc(C(F)(F)F)o1 [5/4] | 1000 to 10000 nM | 1000 to 10000 nM | 100 to 1000 nM | –
3 | O=C(O)CS(=O)(=O)c1cccc(-c2ccc(CN(Cc3ccc(C(F)(F)F)o3)Cc3cccc4ccccc34)cc2)c1 [7/2] | 100 to 1000 nM | 100 to 1000 nM | 1000 to 10000 nM | –
4 | O=C(O)CS(=O)(=O)c1cccc(-c2ccc(CN(Cc3ccc(C(F)(F)F)o3)Cc3ccc(F)c4cccnc34)cc2)c1 [7/3] | 1000 to 10000 nM and 100 to 1000 nM | 1000 to 10000 nM | – | B*
5 | COc1ccc2ccccc2c1CN(Cc1ccc(-c2cccc(S(=O)(=O)CC(=O)O)c2)cc1)Cc1ccc(C(F)(F)F)o1 [7/5] | 100 to 1000 nM | 100 to 1000 nM | 100 to 1000 nM | –
6 | Cc1sc2ccccc2c1CN(Cc1ccc(-c2cccc(S(=O)(=O)CC(=O)O)c2)cc1)Cc1ccc(C(F)(F)F)o1 [7/6] | 100 to 1000 nM | 100 to 1000 nM | 1000 to 10000 nM | –
7 | O=C(O)CS(=O)(=O)c1cccc(-c2ccc(CN(Cc3ccc(C(F)(F)F)o3)Cc3c(Cl)cccc3Cl)cc2)c1 [7/10] | 100 to 1000 nM | 1000 to 10000 nM | 100 to 1000 nM | –
8 | Cc1cc(C)c(CN(Cc2ccc(-c3cccc(S(=O)(=O)CC(=O)O)c3)cc2)C(C)c2ccc(C(F)(F)F)o2)c(C)c1 (stereo not drawn) [7/12] | 100 to 1000 nM | 100 to 1000 nM | 1000 to 10000 nM | –
9 | Cc1cc(C)c(CN(Cc2ccc(-c3cccc(S(=O)(=O)CC(=O)O)c3)cc2)Cc2ccc(C(=O)N(C)C)o2)c(C)c1 [7/13] | 1000 to 10000 nM | 1000 to 10000 nM | 1000 to 10000 nM | –
10 | Cc1cc(C)c(CN(Cc2ccc(-c3cccc(S(=O)(=O)CC(=O)O)c3)cc2)Cc2cccc(C(F)(F)F)c2)c(C)c1 [7/14] | 100 to 1000 nM | 1000 to 10000 nM | 1000 to 10000 nM | –
11 | Cc1ccc2ccccc2c1C(=O)N(Cc1ccc(-c2cccc([C@H](C)C(=O)O)c2)cc1)Cc1ccc(C(F)(F)F)o1 [10/6] | < 100 nM | < 100 nM | < 100 nM | –
12 | Cc1cc(C)c(CN(Cc2ccc(-c3cc(F)cc(S(=O)(=O)CC(=O)O)c3)cc2)Cc2ccc(C(F)(F)F)o2)c(C)c1 [12/1] | 100 to 1000 nM | 100 to 1000 nM | 100 to 1000 nM | –
13 | Cc1cc(C)c(CN(Cc2ccc(C(F)(F)F)o2)Cc2ccc(-c3cccc(S(=O)(=O)CC(=O)O)c3)cc2C)c(C)c1 [15/1] | 100 to 1000 nM | 1000 to 10000 nM | 1000 to 10000 nM | –
14 | Cc1ccc2ccccc2c1CN(Cc1ccc(-c2cc(F)c(CO)c(S(=O)(=O)CC(=O)O)c2)cc1)Cc1ccc(C(F)(F)F)o1 [22/7] | 100 to 1000 nM | 100 to 1000 nM | 1000 to 10000 nM | –
15 | COc1cc(-c2cc(F)c(CO)c(S(=O)(=O)CC(=O)O)c2)ccc1CN(Cc1ccc(C(F)(F)F)o1)Cc1c(C)ccc2ccccc12 [22/9] | < 100 nM | 100 to 1000 nM | 1000 to 10000 nM | –
16 | COc1cc(-c2cc(F)c(CO)c(S(=O)(=O)CC(=O)O)c2)ccc1CN(Cc1ccc(C(F)(F)F)o1)Cc1c(C)cc(C)cc1C [22/10] | 100 to 1000 nM | 1000 to 10000 nM | 1000 to 10000 nM | –
17 | Cc1cc(C)c(C(=O)N(Cc2ccc(-c3cc(F)c(CO)c(S(=O)(=O)CC(=O)O)c3)cc2)Cc2ccc(C(F)(F)F)o2)c(C)c1 [22/13] | 100 to 1000 nM | 100 to 1000 nM | 1000 to 10000 nM | –
18 | Cc1ccc2ccccc2c1CN(Cc1ccc(-c2cncc(S(=O)(=O)CC(=O)O)c2)cc1)Cc1ccc(C(F)(F)F)o1 [26/7] | 100 to 1000 nM | 1000 to 10000 nM | > 10000 nM | –
19 | Cc1ccc2ccccc2c1C(=O)N(Cc1ccc(-c2cccc(C(C)(C)C(=O)O)c2)cc1)Cc1ccc(C(C)(C)C)o1 [27/1] | < 100 nM | 100 to 1000 nM | 1000 to 10000 nM | –
